Reference: publication PMC7821884, “BRAF inhibition protects against hearing loss in mice” (Science Advances, 2020)

Tests used:
[1] = system: Tg(brn3c:GFP) zebrafish larvae neuromast HCs; assay: Zebrafish lateral line neuromast hair cell loss after cisplatin; format: in vivo
Description: Lateral line neuromasts of zebrafish are a well-established model for the study of drug protection from cisplatin or aminoglycoside toxicity because their HCs are considered homologous to mammalian HCs and readily accessible to compounds in vivo ([47]–[49]). As in our previous studies, MI1 (medial neuromast 1) and O1-2 (otic line) neuromasts were examined in Tg(brn3c:GFP) zebrafish larvae 5 days after fertilization ([50], [51]). […] Green fluorescent protein (GFP) (brn3c) and otoferlin staining were used to identify neuromast HCs. In fig.
Zebrafish (D. rerio) experimental larvae of either sex were obtained by pair mating of adult fish maintained at Boys Town National Research Hospital. We used zebrafish line Tg(brn3c:GFP) that expresses a membrane-bound GFP in HCs. Fish were maintained at 28.5°C in E3 media [5 mM NaCl, 0.17 mM KCl, 0.33 mM CaCl2, and 0.33 MgSO4 (pH 7.2)] at a density of 50 embryos/larvae per […] petri dish. Experimental animals were used at 5 days post-fertilization and cryo-anesthetized after treatment and before fixation. Average HC counts in our studies were obtained from the following three neuromasts: MI1 (medial neuromast 1) and O1 and O2 (otic line).

[2] = system: human neuroblastoma and lung carcinoma cell lines; assay: Tumor Cell Titer-Glo viability assay, interference with cisplatin tumor killing (six cell lines); format: cell-based; settings: compound at 3× protective IC50 (dabrafenib 35 μM, AZD5438 […]) + 15 μM cisplatin (200 μM for A549), 48 hours
Description: In clinical settings, cisplatin is used to treat several tumor types, including neuroblastoma and lung carcinoma. […] Medium-alone–, cisplatin-alone–, and dabrafenib-alone–treated cells were used as controls, and viability was reported as percent survival compared to medium alone (Fig. 4E).
Three human neuroblastoma cell lines IMR-32, SH-SY5Y, and, SK-N-AS, as well as three human lung carcinoma cell lines SHP-77 small cell, H1155 non–small cell, and A549 non–small cell, were used to determine the compounds’ effect on cisplatin’s tumor-killing efficacy ([77]–[83]). Cell lines were purchased from the American Type Culture Collection (ATCC), and cell culture was conducted according to ATCC specifications. Neuroblastoma cell lines IMR-32 and SH-SY5Y are maintained in Dulbecco’s modified Eagle’s medium (DMEM) 1× with glucose (4.5 g/liter), L-glutamine, and sodium pyruvate (10-013-CV, Corning) with 10% fetal bovine serum (FBS) (35011132, Corning) and ampicillin (50 μg/ml; A5354-10ML, Sigma-Aldrich) added. The SK-N-AS cell line is maintained in DMEM 1× with D-glucose (4.5 g/liter), L-glutamine, and 25 mM Hepes (12430-054, Gibco) with 10% FBS, 0.1 mM nonessential amino acids, and ampicillin (50 μg/ml) added. A549 cells are maintained in F-12K medium with L-glutamine (30-2004, ATCC) with 10% FBS and ampicillin (50 μg/ml) added. […]

HEI-OC1 cell line = assay: Caspase-Glo 3/7 activity screen for protection from cisplatin-induced cell death; format: cell-based, mouse; settings: Mus musculus; HEI-OC1, 50 μM cisplatin, 22 hours
Description: An unbiased screen for compounds protective against cisplatin ototoxicity ([12], [13]) was conducted using the immortalized inner ear cell line HEI-OC1 derived from mouse cochlea ([14]). One hundred sixty-two unique small-molecule kinase-specific inhibitors were screened in dose-response mode for protection from 50 μM cisplatin. A caspase-3/7 activity assay was selected to measure apoptosis using a protocol that quantifies a luminescent product derived from the cleavage of caspase-3/7 substrate (Caspase-Glo 3/7 reagent). One hundred percent luminescence was defined by cells treated with cisplatin alone, and 0% was defined by untreated cells (Fig. 1A, fig. S1, table S1, and dataset in the Supplementary Materials).
In these screens, caspase-3 cleavage was chosen as the end point indicating cisplatin-induced apoptosis, because it allowed the inhibition of cell death to be monitored at the level of any molecular target upstream of caspase-3 cleavage in the HEI-OC1 cell line. Cells were plated at a previously optimized concentration of 1600 cells per well in medium without γ-interferon to limit proliferation and tested against 50 μM cisplatin based on a previous dose–response curve. Tested compounds were dissolved in DMSO before addition to medium with a final DMSO concentration of <0.5%. The screens are described in detail in our previous publications ([12], [13]). […]

Structure (SMILES): CC(C)(C)c1nc(-c2cccc(NS(=O)(=O)c3c(F)cccc3F)c2F)c(-c2ccnc(N)n2)s1 [dabrafenib]
- protection from cisplatin-induced neuromast HC loss ([1]; 1 hour pretreatment, 6 hours 400 μM cisplatin, dabrafenib 100 nM): significant protection
- toxic effect of compound alone on neuromast HCs ([1]; all concentrations tested): no toxic effect
- effect on cisplatin-induced tumor cell death [2]: no inhibitory effect
- IC50 (HEI-OC1 cell line): 13.5 µM
